From patent publication US20230295157A1, “3-(1H-IMIDAZOL-2-YL)-2,3,8,8A-TETRAHYDROINDOLIZIN-5(1H)-ONE DERIVATIVES USEFUL AS FACTOR XIA INHIBITORS” (JANSSEN PHARMACEUTICA NV, priority 2020, published 2023)
Read-outs that look alike come from different tables or passages of the source.

Key:
Factor XIa = Factor XIa (Homo sapiens (Human), UniProt P03951); assay: Factor XIa inhibition assay (FLINT) utilizing a fluorophore-quencher pair peptide substrate; assay type: biochemical; conditions: 30 min preincubation, kinetic reads over 30 min, read-out: FXIa Kin Inh IC50
Method in brief: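 FXIa ([…]) preincubated 30 min with compound (11-point 3-fold dilution, top 100 nM, 2% DMSO), then 15 μM quenched FXI Arg146-based peptide added; Tris pH 7.5, CaCl2, BSA, CHAPS. Fluorescence 485/520 nm read kinetically every 5 min over 30 min at RT; IC50 by 4-parameter fit.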

human plasma kallikrein = human plasma kallikrein (Homo sapiens (Human), UniProt P03952); assay: Kallikrein inhibition assay (FLINT) utilizing a quenched AMC peptide substrate; assay type: biochemical; conditions: 30 min preincubation, read-out: Kallikrein Kin Inh IC50
Method in brief: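 Fluorogenic Z-Gly-Pro-Arg-AMC cleavage (50 μM substrate, 2 nM kallikrein, Tris pH 7.5, CaCl2, BSA, CHAPS, 2% DMSO) read kinetically at 340/440 nm for 30 min after 30-min compound pre-incubation. Compounds in 11-point 3-fold series from 1 μM; percent inhibition fitted to four-parameter equation for IC50.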

[1] = 5Fam-[…]-K5Tamra substrate 15 μM
[2] = kinetic reads over 30 min, Z-Gly-Pro-Arg-AMC substrate 50 μM
[3] = 5Fam-KLTRAETV-K5Tamra substrate 15 μM

Chain of human plasma kallikrein (P03952 391-638): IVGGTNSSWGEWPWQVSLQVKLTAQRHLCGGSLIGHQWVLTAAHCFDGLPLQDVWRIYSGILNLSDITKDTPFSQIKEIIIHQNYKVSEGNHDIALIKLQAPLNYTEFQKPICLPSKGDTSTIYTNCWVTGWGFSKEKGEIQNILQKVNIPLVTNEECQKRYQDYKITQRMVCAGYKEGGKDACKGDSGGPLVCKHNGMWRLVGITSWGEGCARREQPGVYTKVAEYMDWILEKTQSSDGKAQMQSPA
Chain of human plasma kallikrein (P03952 20-390 partner): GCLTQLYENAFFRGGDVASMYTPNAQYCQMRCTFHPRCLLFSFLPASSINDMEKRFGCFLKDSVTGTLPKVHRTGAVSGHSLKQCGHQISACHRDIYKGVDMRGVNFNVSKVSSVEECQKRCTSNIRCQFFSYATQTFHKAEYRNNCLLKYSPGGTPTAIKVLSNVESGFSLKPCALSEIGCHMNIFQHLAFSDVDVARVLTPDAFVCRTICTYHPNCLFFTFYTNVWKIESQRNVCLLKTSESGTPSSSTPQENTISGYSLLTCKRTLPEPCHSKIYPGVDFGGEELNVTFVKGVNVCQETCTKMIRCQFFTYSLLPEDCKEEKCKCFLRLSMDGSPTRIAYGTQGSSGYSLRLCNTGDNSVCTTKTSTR
Chain of Factor XIa (P03951 388-625): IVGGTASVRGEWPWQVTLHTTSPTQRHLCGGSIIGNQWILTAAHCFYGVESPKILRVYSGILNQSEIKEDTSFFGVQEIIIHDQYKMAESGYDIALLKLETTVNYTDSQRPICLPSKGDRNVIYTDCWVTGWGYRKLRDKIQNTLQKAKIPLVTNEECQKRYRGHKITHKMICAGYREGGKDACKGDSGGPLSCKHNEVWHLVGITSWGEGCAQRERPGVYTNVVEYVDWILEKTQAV
Chain of Factor XIa (P03951 19-387 partner): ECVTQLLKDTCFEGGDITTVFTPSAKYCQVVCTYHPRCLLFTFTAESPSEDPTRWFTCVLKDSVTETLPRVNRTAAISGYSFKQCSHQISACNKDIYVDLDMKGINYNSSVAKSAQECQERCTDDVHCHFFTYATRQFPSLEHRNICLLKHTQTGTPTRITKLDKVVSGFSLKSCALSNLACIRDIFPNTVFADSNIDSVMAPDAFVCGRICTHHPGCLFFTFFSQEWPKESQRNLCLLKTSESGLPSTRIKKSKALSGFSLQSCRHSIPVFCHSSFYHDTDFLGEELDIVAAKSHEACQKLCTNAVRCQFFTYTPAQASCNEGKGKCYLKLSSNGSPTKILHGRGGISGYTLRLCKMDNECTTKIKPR

An IC50 (Factor XIa; [1]) of 0.5 nM and an IC50 (human plasma kallikrein; [2]) of 0.0055 µM were found for `Nc1nccc(-c2cnc([C@@H]3CC[C@@H]4CC(c5cc(Cl)ccc5-n5cnnn5)=CC(=O)N43)[nH]2)c1F` (single isomer, unassigned) [Example 90, (3S*,8aR)-3-(5-(2-amino-3-fluoropyridin-4-yl)-1H-imidazol-2-yl)-7-(5-chloro-2-(1H-tetrazol-1-yl)phenyl)-2,3,8,8a-tetrahydroindolizin-5(1H)-one] in this work.

An IC50 (Factor XIa; [1]) of 0.7 nM and an IC50 (human plasma kallikrein; [2]) of 0.0017 µM were found for `CC(C)C(=O)Nc1ccccc1-c1cnc([C@@H]2CC[C@@H]3CC(c4c(-n5cnnn5)ccc(Cl)c4F)=CC(=O)N32)[nH]1` (relative stereo) [Example 305, N-(2-(2-((3S,8aR*)-7-(3-Chloro-2-fluoro-6-(1H-tetrazol-1-yl)phenyl)-5-oxo-1,2,3,5,8,8a-hexahydroindolizin-3-yl)-1H-imidazol-4-yl)phenyl)isobutyramide] in this work.

An IC50 (Factor XIa; [3]) of 0.5 nM and an IC50 (human plasma kallikrein; [2]) of 0.0076 µM were found for `[2H]c1nc([C@@H]2CC[C@@H]3CC(c4c(-n5cnnn5)ccc(Cl)c4F)=CC(=O)N32)[nH]c1-c1c(F)nc(N)c([2H])c1[2H]` [Example 149, (3S,8aR)-3-[5-(6-amino-4,5-dideuterio-2-fluoro-3-pyridyl)-4-deuterio-1H-imidazol-2-yl]-7-[3-chloro-2-fluoro-6-(tetrazol-1-yl)phenyl]-2,3,8,8a-tetrahydro-1H-indolizin-5-one] in this work.

An IC50 (Factor XIa; [3]) of 12.9 nM and an IC50 (human plasma kallikrein; [2]) of 0.0175 µM were found for `O=C1C=C(c2c(-n3cnnn3)ccc(Cl)c2F)C[C@@H]2CC[C@@H](c3ncc(-c4ccnc(C(F)(F)F)c4)[nH]3)N12` [Example 353, (3S,8aS)-7-(3-Chloro-2-fluoro-6-(1H-tetrazol-1-yl)phenyl)-3-(5-(2-(trifluoromethyl)pyridin-4-yl)-1H-imidazol-2-yl)-2,3,8,8a-tetrahydroindolizin-5(1H)-one] in this work.

An IC50 (Factor XIa; [3]) of 0.3 nM and an IC50 (human plasma kallikrein; [2]) of 0.0007 µM were found for `O=C1C=C(c2c(-n3cnnn3)ccc(Cl)c2F)CC2CC[C@@H](c3ncc(-c4ccc5[nH]c(=O)ccc5c4)[nH]3)N12` (stereo partly drawn) [Example 261, 6-[2-[(3S)-7-[3-Chloro-2-fluoro-6-(tetrazol-1-yl)phenyl]-5-oxo-2,3,8,8a-tetrahydro-1H-indolizin-3-yl]-1H-imidazol-5-yl]-1H-quinolin-2-one] in this work.

An IC50 (Factor XIa; [3]) of 3.7 nM and an IC50 (human plasma kallikrein; [2]) of 0.0275 µM were found for `Nc1cc(-c2cnc([C@@H]3CC[C@@H]4CC(c5c(-n6cnnn6)ccc(Cl)c5F)=CC(=O)N43)[nH]2)c(Cl)cn1` [Example 15, (3S,8aR)-3-[5-(2-Amino-5-chloro-4-pyridyl)-1H-imidazol-2-yl]-7-[3-chloro-2-fluoro-6-(tetrazol-1-yl)phenyl]-2,3,8,8a-tetrahydro-1H-indolizin-5-one] in this work.

An IC50 (Factor XIa; [3]) of 6.4 nM and an IC50 (human plasma kallikrein; [2]) of 0.0701 µM were found for `CS(=O)(=O)Nc1cc(-c2cnc(C3CCC4CC(c5c(-n6cnnn6)ccc(Cl)c5F)=CC(=O)N43)[nH]2)ccn1` (stereo not drawn) [Example 7, N-[4-[2-[7-[3-Chloro-2-fluoro-6-(tetrazol-1-yl)phenyl]-5-oxo-2,3,8,8a-tetrahydro-1H-indolizin-3-yl]-1H-imidazol-5-yl]-2-pyridyl]methanesulfonamide] in this work.

An IC50 (Factor XIa; [3]) of 0.4 nM and an IC50 (human plasma kallikrein; [2]) of 0.0111 µM were found for `O=C1C=C(c2c(-n3cnnn3)ccc(Cl)c2F)C[C@H]2CC[C@@H](c3ncc(-c4c[nH]cc4C(F)(F)F)[nH]3)N12` [Example 230, (3S,8aR)-7-(3-Chloro-2-fluoro-6-(1H-tetrazol-1-yl)phenyl)-3-(5-(4-(trifluoromethyl)-1H-pyrrol-3-yl)-1H-imidazol-2-yl)-2,3,8,8a-tetrahydroindolizin-5(1H)-one] in this work.

An IC50 (Factor XIa; [3]) of 4.7 nM and an IC50 (human plasma kallikrein; [2]) of 0.0211 µM were found for `O=C1C=C(c2c(-n3cnnn3)ccc(Cl)c2F)C[C@H]2CC[C@@H](c3ncc(-c4ccc(CO)nc4F)[nH]3)N12` (single isomer, unassigned) [Example 235] in this work.

An IC50 (Factor XIa; [3]) of 6.5 nM and an IC50 (human plasma kallikrein; [2]) of 0.0339 µM were found for `C[C@@H](O)c1nccc(-c2cnc([C@@H]3CC[C@@H]4CC(c5c(-n6cnnn6)ccc(Cl)c5F)=CC(=O)N43)[nH]2)c1F` [Example 185, (3S,8aR)-7-(3-chloro-2-fluoro-6-(1H-tetrazol-1-yl)phenyl)-3-(5-(3-fluoro-2-((R)-1-hydroxyethyl)pyridin-4-yl)-1H-imidazol-2-yl)-2,3,8,8a-tetrahydroindolizin-5(1H)-one] in this work.

An IC50 (Factor XIa; [3]) of over 100 nM and an IC50 (human plasma kallikrein; μM, kinetic reads) of over 1 µM were found for `Nc1ccncc1-c1c[nH]c([C@@H]2CCC3CC(c4c(-n5cnnn5)ccc(Cl)c4F)=CC(=O)N32)n1` (stereo partly drawn) [Example 253, (3S)-3-[4-(4-Amino-3-pyridyl)-1H-imidazol-2-yl]-7-[3-chloro-2-fluoro-6-(tetrazol-1-yl)phenyl]-2,3,8,8a-tetrahydro-1H-indolizin-5-one] in this work.

An IC50 (Factor XIa; [1]) of 3.8 nM and an IC50 (human plasma kallikrein; [2]) of 0.0343 µM were found for `CC(C)(O)COc1nccc(-c2c[nH]c([C@@H]3CC[C@@H]4CC(c5c(-n6cc(C(F)(F)F)nn6)ccc(Cl)c5F)=CC(=O)N43)n2)c1F` [Example 191, (3S,8aR)-7-(3-Chloro-2-fluoro-6-(4-(trifluoromethyl)-1H-1,2,3-triazol-1-yl)phenyl)-3-(4-(3-fluoro-2-(2-hydroxy-2-methylpropoxy)pyridin-4-yl)-1H-imidazol-2-yl)-2,3,8,8a-tetrahydroindolizin-5(1H)-one] in this work.

An IC50 (Factor XIa; [3]) of 0.7 nM and an IC50 (human plasma kallikrein; [2]) of 0.0492 µM were found for `O=C(O)c1nccc(-c2cnc([C@@H]3CC[C@@H]4CC(c5c(-n6cc(C(F)(F)F)nn6)ccc(Cl)c5F)=CC(=O)N43)[nH]2)c1F` [Example 58, 4-(2-((3S,8aR)-7-(3-chloro-2-fluoro-6-(4-(trifluoromethyl)-1H-1,2,3-triazol-1-yl)phenyl)-5-oxo-1,2,3,5,8,8a-hexahydroindolizin-3-yl)-1H-imidazol-5-yl)-3-fluoropicolinic acid] in this work.

An IC50 (Factor XIa; [3]) of 1.6 nM and an IC50 (human plasma kallikrein; [2]) of 0.0531 µM were found for `CONC(=O)c1nccc(-c2cnc([C@@H]3CC[C@@H]4CC(c5c(-n6cnnn6)ccc(Cl)c5F)=CC(=O)N43)[nH]2)c1F` [Example 103, 4-[2-[(3S,8aR)-7-[3-Chloro-2-fluoro-6-(tetrazol-1-yl)phenyl]-5-oxo-2,3,8,8a-tetrahydro-1H-indolizin-3-yl]-1H-imidazol-5-yl]-3-fluoro-N-methoxy-pyridine-2-carboxamide] in this work.

An IC50 (Factor XIa; [3]) of 1.3 nM and an IC50 (human plasma kallikrein; [2]) of 0.0156 µM were found for `O=C1C=C(c2c(-n3cnnn3)ccc(Cl)c2F)CC2CC[C@@H](c3nc(Cl)c(-c4cc[nH]c(=O)c4)[nH]3)N12` (stereo partly drawn) [Example 199, (3S)-7-(3-chloro-2-fluoro-6-(1H-tetrazol-1-yl)phenyl)-3-(4 chloro-5-(2-oxo-1,2-dihydropyridin-4-yl)-1H-imidazol-2-yl)-2,3,8,8a-tetrahydroindolizin-5(1H)-one] in this work.

An IC50 (Factor XIa; [3]) of 1 nM and an IC50 (human plasma kallikrein; [2]) of 0.0046 µM were found for `O=C1C=C(c2c(-n3cnnn3)ccc(Cl)c2F)C[C@H]2CC[C@@H](c3nc(-c4ccc5[nH]cnc5c4)c[nH]3)N12` [Example 42, (3S,8aR)-3-(4 (1H-benzo[d]imidazol-5-yl)-1H-imidazol-2-yl)-7-(3-chloro-2-fluoro-6-(1H-tetrazol-1-yl)phenyl)-2,3,8,8a-tetrahydroindolizin-5(1H)-one] in this work.

An IC50 (Factor XIa; [1]) of 1.4 nM and an IC50 (human plasma kallikrein; [2]) of 0.0675 µM were found for `[2H]C([2H])([2H])C(=O)Nc1cnccc1-c1c[nH]c([C@@H]2CCC3CC(c4c(-n5cnnn5)ccc(Cl)c4F)=CC(=O)N32)n1` (stereo partly drawn) [Example 256, N-[4-[2-[(3S)-7-[3-Chloro-2-fluoro-6-(tetrazol-1-yl)phenyl]-5-oxo-2,3,8,8a-tetrahydro-1H-indolizin-3-yl]-1H-imidazol-4-yl]-3-pyridyl]-2,2,2-trideuterio-acetamide] in this work.

An IC50 (Factor XIa; [1]) of 9.3 nM and an IC50 (human plasma kallikrein; [2]) of 0.0479 µM were found for `CC1(C)C[C@@H](c2ncc(-c3ccc(N)nc3F)[nH]2)N2C(=O)C=C(c3c(-n4cnnn4)ccc(Cl)c3F)C[C@@H]21` (relative stereo) [Example 336, (3S,8aR)-3-(5-(6-Amino-2-fluoropyridin-3-yl)-1H-imidazol-2-yl)-7-(3-chloro-2-fluoro-6-(1H-tetrazol-1-yl)phenyl)-1,1-dimethyl-2,3,8,8a-tetrahydroindolizin-5(1H)-one] in this work.

An IC50 (Factor XIa; [3]) of 0.6 nM and an IC50 (human plasma kallikrein; [2]) of 0.0019 µM were found for `O=C1C=C(c2cc(Cl)ccc2-n2cc(C(F)(F)F)nn2)C[C@H]2CC[C@@H](c3ncc(-c4ccc5[nH]c(=O)ccc5c4)[nH]3)N12` [Example 101, 6-(2-((3S,8aR)-7-(5-chloro-2-(4-(trifluoromethyl)-1H-1,2,3-triazol-1-yl)phenyl)-5-oxo-1,2,3,5,8,8a-hexahydroindolizin-3-yl)-1H-imidazol-5-yl)quinolin-2(1H)-one] in this work.

An IC50 (Factor XIa; [3]) of 0.4 nM and an IC50 (human plasma kallikrein; [2]) of 0.0116 µM were found for `[2H]c1cc(-c2cnc([C@@H]3CC[C@@H]4CC(c5cc(Cl)ccc5-n5cnnn5)=CC(=O)N43)[nH]2)c(F)nc1N` [Example 124, (3S,8aR)-3-[5-(6-amino-5-deuterio-2-fluoro-3-pyridyl)-1H-imidazol-2-yl]-7-[5-chloro-2-(tetrazol-1-yl)phenyl]-2,3,8,8a-tetrahydro-1H-indolizin-5-one] in this work.

An IC50 (Factor XIa; [3]) of 0.7 nM and an IC50 (human plasma kallikrein; [2]) of 0.0065 µM were found for `O=C1C=C(c2c(-n3cnnn3)ccc(Cl)c2F)C[C@H]2CC[C@@H](c3nc(F)c(-c4ccnc(CO)c4F)[nH]3)N12` [Example 107, (3S,8aR)-7-[3-chloro-2-fluoro-6-(tetrazol-1-yl)phenyl]-3-[4-fluoro-5-[3-fluoro-2-(hydroxymethyl)-4-pyridyl]-1H-imidazol-2-yl]-2,3,8,8a-tetrahydro-1H-indolizin-5-one] in this work.
